Bounds are passed on as bounds.

The first experiment has as its target T1, Steroid 17-alpha-hydroxylase/17,20 lyase (Rattus norvegicus, UniProt P11715).
T1 sequence (P11715 whole entry): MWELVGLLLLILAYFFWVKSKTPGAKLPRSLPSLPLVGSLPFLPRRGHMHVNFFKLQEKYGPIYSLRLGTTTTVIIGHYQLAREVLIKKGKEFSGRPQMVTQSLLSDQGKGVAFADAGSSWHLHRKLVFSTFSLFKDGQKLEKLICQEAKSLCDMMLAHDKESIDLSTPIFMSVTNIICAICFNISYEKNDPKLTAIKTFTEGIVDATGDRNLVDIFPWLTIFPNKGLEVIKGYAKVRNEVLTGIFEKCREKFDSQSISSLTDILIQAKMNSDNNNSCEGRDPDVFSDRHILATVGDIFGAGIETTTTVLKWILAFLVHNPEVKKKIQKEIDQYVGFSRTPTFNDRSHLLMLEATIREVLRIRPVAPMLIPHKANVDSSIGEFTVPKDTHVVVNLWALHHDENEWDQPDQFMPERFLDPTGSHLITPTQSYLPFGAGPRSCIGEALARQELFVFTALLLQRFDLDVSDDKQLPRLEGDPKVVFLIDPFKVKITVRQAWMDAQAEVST
Conditions: not given
Consider `O=C1/C(=C/c2cncs2)CCc2ccccc21`, for which the IC50 turned out to be 21 µM.

`O=C1/C(=C/c2ccccn2)CCc2ccccc21` yielded an IC50 of less than 10 µM.

`c1ccc(C2C3CCc4ccccc4C32)nc1` (centres undefined) came in with an IC50 of less than 10 µM.

`O=C1c2ccccc2CCC1C(O)c1cccnn1` (centres undefined): the IC50 is less than 10 µM.

Compound `O=C1/C(=C/c2cccnc2)CCc2ccccc21` registered an IC50 of 48 µM.

As to `c1cncc(C2C3CCc4ccccc4C32)c1` (centres undefined), the IC50 came out at 87 µM.

With `O=C1/C(=C/c2cc[nH]n2)CCc2ccccc21`, the IC50 is less than 10 µM.

`O=C1c2ccccc2CCC1C(O)c1cnccn1` (centres undefined) showed an IC50 of less than 10 µM.

`O=C1/C(=C/c2ccnnc2)CCc2ccccc21` returned an IC50 of less than 10 µM.

Compound `O=C1/C(=C/c2ccsc2)CCc2ccccc21` showed an IC50 of less than 10 µM.

Compound `O=C1/C(=C/c2cccnn2)CCc2ccccc21` had an IC50 of less than 10 µM.

`O=C1c2ccccc2CCC1C(O)c1ccncn1` (centres undefined): the IC50 is less than 10 µM.

`O=C1/C(=C/c2ccncc2)CCc2ccccc21` registered an IC50 of 37 µM.

With `c1ccc2c(c1)CCC1C(c3ccsc3)C21` (centres undefined), the IC50 was less than 10 µM.

`c1ccc2c(c1)CCC1C(c3ccncc3)C21` (centres undefined): the IC50 worked out at 36 µM.

`c1ccc(C2C3CCc4ccccc4C32)cc1` (centres undefined) registered an IC50 of less than 10 µM.

`O=C1c2ccccc2CCC1C(O)c1ccnnc1` (centres undefined) gave an IC50 of less than 10 µM.

`O=C1/C(=C/c2ccccc2)CCc2ccccc21` gave an IC50 of less than 10 µM.

In a further experiment the target is T2, Cytochrome P450 11B2, mitochondrial (Homo sapiens, UniProt P19099).
T2 sequence (P19099 whole entry): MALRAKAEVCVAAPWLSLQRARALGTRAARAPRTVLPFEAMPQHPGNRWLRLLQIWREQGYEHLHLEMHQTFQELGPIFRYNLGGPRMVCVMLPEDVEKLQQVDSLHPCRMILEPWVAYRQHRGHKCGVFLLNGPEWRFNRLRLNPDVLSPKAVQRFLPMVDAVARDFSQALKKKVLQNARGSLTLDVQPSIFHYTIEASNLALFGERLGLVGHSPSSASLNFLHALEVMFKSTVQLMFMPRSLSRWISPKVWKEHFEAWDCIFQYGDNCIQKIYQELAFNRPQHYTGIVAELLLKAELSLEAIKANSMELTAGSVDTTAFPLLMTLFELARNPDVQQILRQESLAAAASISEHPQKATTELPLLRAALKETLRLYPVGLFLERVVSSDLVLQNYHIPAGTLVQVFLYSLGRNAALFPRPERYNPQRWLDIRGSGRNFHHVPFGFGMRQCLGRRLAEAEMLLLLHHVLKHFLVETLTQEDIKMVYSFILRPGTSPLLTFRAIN
The note with it: Adrenal gland.
Description: Inhibitory activity against Steroidgenic Cytochrome P450 C18 using Bovine adrenal mitochondria
`c1ccc2c(c1)CCC1C(c3ccsc3)C21` (centres undefined) came in with an IC50 of less than 10 µM.
